“Also recorded” adds a separate entry of the source.
What was measured:
[1] = system: Patient having increased uric acid in urine and diagnosed with symptoms of PDD; assay: Treatment of Patient 1, who had increased uric acid in urine and was diagnosed with symptoms of PDD; assay type: in vivo, human
Protocol: Patient 1 was diagnosed with PDD. […], the patient's urine was analyzed, and the urine level of uric acid was 18.1 mg/kg/day. The normal level of uric acid in normal patients at age nine is 8.3+/−2.0 mg/kg/day. The uric acid level in the urine gradually declined to approximately normal levels, however the symptoms of PDD remained.
[…], Patient 1 was treated with a variety of drugs and exercise- and stress-reducing regimens. […] The exercise- and stress-reducing regimen helped in some respects, because Patient 1 was often fatigued. In addition, the low purine diet was continued at times along with vitamin B6 and magnesium. Over these many years, Patient 1 had varying levels of rather minor improvements in their symptoms in response to these and other attempted therapies.
Patient 1 began use of uridine, with an oral dosage of approximately 50 mg/kilogram of body weight per day. […] In particular, Patient 1 tried varying dosages of uridine up to 1000 mg/kg/day.

hyperuricosuric patients = conditions: some of these patients; cited from earlier work
[2] = system: hypouricosuric PDD patients; conditions: single oral doses of 1,000 mg/kg/day; cited from earlier work
[3] = cited from earlier work
[4] = cited from earlier work; remark: listed apart in the source
[5] = Patient 1, oral uridine, comparative narrative data against no uridine

For C[C@H](N)Cc1ccccc1.C[C@H](N)Cc1ccccc1.O=S(=O)(O)O [Dexedrine®, reference compound], the “Effect of earlier drug treatment on the patient's condition” value (from here on “Effect of earlier drug treatment”) ([1]; Patient) was “little success or worsening of their condition”.

With O=C(CCCN1CCC(O)(c2ccc(Cl)cc2)CC1)c1ccc(F)cc1 [Haldol®, reference compound] the “Effect of earlier drug treatment” value ([1]; Patient 1, donor alpha) was “little success or worsening of their condition”.

With COC(=O)C(c1ccccc1)C1CCCCN1.Cl (stereo not drawn) [Ritalin®, reference compound] the “Effect of earlier drug treatment” value ([1]; Patient) was “little success or worsening of their condition”.

In the case of Oc1ncnc2[nH]ncc12 [allopurinol], the “Benefit in patients with hyperuricosuria” value (hyperuricosuric patients) is listed as “benefited”.

In the case of O=c1ccn([C@@H]2O[C@H](CO)[C@@H](O)[C@H]2O)c(=O)[nH]1 [uridine], the “Improvements upon cessation of uridine therapy” value ([1]; Patient 1) was “declined or regressed”, the “Neurological and neuromuscular symptoms (autistic disorder and ataxia) upon administration” value ([1]; Patient 1) was “improved dramatically” and the “Fine motor skills with uridine” value [1, 5] was “a. Able to use a screwdriver”. For the same compound, the “Gross motor skills with uridine” value [1, 5] was “d. Hugs normally-finds it easier; also recorded: e. Much less exhaustion and pain; also recorded: b. Does not crash into furniture,”, the “Speech and language with uridine” value [1, 5] was “b. Very quick to understand jokes,; also recorded: e. Usually makes eye contact” and the “Benefit at this dosage of uridine” value ([1]; Patient 1, oral, 150 mg/kg/day) was “rapid benefits”. The “Dosage dependence of improvements” value ([1]; Patient 1, varying dosages up to 1000 mg/kg/day) was “The higher dosages gave the most improved results”, the “Effect on symptoms in hypouricosuric PDD patients” value [2] was “reduce the symptoms” and the “Adverse effect at higher dosages” value ([3]; dosages higher than 1000 mg/kg/day, some patients) was “mild diarrhea”. The Toxic effects ([3]; dosages of up to 1000 mg/kg/day, pure uridine) was “no known toxic effects” and the “Normal plasma concentration of uridine” value [4] was 2 to 10 µM.
